Drawing on ChEMBL document CHEMBL1145386, “Structure-based design, synthesis, and study of pyrazolo[1,5-a][1,3,5]triazine derivatives as potent inhibitors of protein kinase CK2” (Bioorg Med Chem Lett, 2007), this text covers IC50, Activity and Ki for 17 compounds.

The test system of one experiment is HCT-116. The experiment can be described thus: Growth inhibition of HCT116 cells by MTT assay. In kind it is functional, cell-based. Particulars: Homo sapiens. Background: Tetrazolium assays rely on reduction of a dye to a coloured formazan, in cell work by metabolically active cells.
A further experiment has as its system PC-3. The experiment can be described thus: Growth inhibition of PC3 cells. Particulars: Homo sapiens.
The target of experiment [1] is Casein kinase II subunit alpha (Zea mays, UniProt P28523). As to the kind of experiment: Inhibition of corn CK2 alpha.

The source made the active and inactive calls. No cut-off for these calls is given here.

Usually IC50 stands for the concentration that gives 50% inhibition. In general, Ki refers to a measure of affinity in units of concentration, obtained from inhibition or displacement. A low value points to higher affinity.

Chain of Casein kinase II subunit alpha (P28523 whole entry): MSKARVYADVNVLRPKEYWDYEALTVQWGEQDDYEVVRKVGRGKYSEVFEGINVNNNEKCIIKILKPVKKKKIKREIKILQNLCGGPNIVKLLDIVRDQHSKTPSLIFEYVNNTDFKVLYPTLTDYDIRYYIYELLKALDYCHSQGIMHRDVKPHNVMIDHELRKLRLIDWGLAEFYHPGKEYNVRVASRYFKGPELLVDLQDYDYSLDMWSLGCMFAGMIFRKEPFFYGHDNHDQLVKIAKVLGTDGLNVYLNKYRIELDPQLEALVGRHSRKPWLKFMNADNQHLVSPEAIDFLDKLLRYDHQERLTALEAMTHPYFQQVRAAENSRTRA

For the compound `CC(=O)Nc1cccc(Nc2nc(Nc3cccc(C(=O)NCCN(C)C)c3)n3ncc(C#N)c3n2)c1`, in the experiment on HCT-116, half-maximal inhibition (IC50) was put at 39000 nM.

On to `CC(=O)Nc1cccc(Nc2nc(Nc3cccc(OC(F)F)c3)n3ncc(C#N)c3n2)c1`, for which the IC50 with HCT-116 was determined as 2100 nM; with PC-3, 1700 nM.

For `CC(=O)Nc1cccc(Nc2nc(Nc3ccccc3)n3ncc(C#N)c3n2)c1`, the IC50 with HCT-116 came out at 990 nM.

Take `CC(=O)Nc1cccc(Nc2nc(Nc3cccc(C(=O)N4CCCC4)c3)n3ncc(C#N)c3n2)c1`: the IC50 in the experiment on HCT-116 was determined as 1400 nM; in the experiment with PC-3, 780 nM.

As for `CC(=O)Nc1cccc(Nc2nc(Nc3cccc(C(=O)O)c3)n3ncc(C#N)c3n2)c1`, the outcome in the experiment with HCT-116 was inactive.

In the experiment with HCT-116, `CCN(CC)Cc1ccc(Nc2nc(Nc3cccc(NC(C)=O)c3)nc3c(C#N)cnn23)cc1` had an IC50 of 2200 nM.

`CC(=O)Nc1cccc(Nc2nc(NC3CC3)n3ncc(C)c3n2)c1` registered an IC50 in the experiment with HCT-116 of 43000 nM.

The compound `CCN(CC)c1cccc(Nc2nc(Nc3cccc(NC(C)=O)c3)nc3c(C#N)cnn23)c1` displayed an IC50 in the experiment with HCT-116 of 2500 nM.

Take `CCN(CC)C(=O)c1cccc(Nc2nc(Nc3cccc(NC(C)=O)c3)nc3c(C#N)cnn23)c1`: the IC50 with HCT-116 was found to be 760 nM; in the experiment on PC-3, 610 nM.

Take `N#Cc1cnn2c(Nc3ccccc3)nc(Nc3ccccc3)nc12`: the affinity in experiment [1], expressed as Ki, was 24 nM.

Regarding `CC(=O)Nc1cccc(Nc2nc(NC3CC3)n3ncc(Br)c3n2)c1`, the IC50 in the experiment on HCT-116 turned out to be 18000 nM.

With `CCOc1cccc(Nc2nc(Nc3cccc(NC(C)=O)c3)nc3c(C#N)cnn23)c1`, the half-maximal inhibitory concentration (IC50) amounted to 1480 nM in the experiment with HCT-116 and 1200 nM in the experiment with PC-3.

With `CC(=O)Nc1cccc(Nc2nc(NC3CC3)n3ncc(C#N)c3n2)c1`, 2300 nM corresponded to half-maximal inhibition with HCT-116 (IC50).

As for `CC(=O)Nc1cccc(Nc2nc(Nc3ccccc3)n3ncc(C)c3n2)c1`, 7600 nM corresponded to half-maximal inhibition in the experiment on HCT-116 (IC50).

For `CN(c1ccccc1)c1nc(Nc2ccccc2)n2ncc(C#N)c2n1`, the affinity in experiment [1], expressed as Ki, was 242 nM.

Compound `CC(=O)Nc1cccc(Nc2nc(NC3CCC3)n3ncc(C#N)c3n2)c1` yielded an IC50 with HCT-116 of 5500 nM.

With `CC(=O)Nc1cccc(Nc2nc(Nc3ccc(CN4CCNCC4)cc3)n3ncc(C#N)c3n2)c1`, the IC50 turned out to be 1060 nM in the experiment with HCT-116 and 1400 nM with PC-3.
